Experimental data: the kinase profiling compilation of Christmann-Franck et al. (2016)
Several values for one entry are separate records, joined by “and”; a condition that tells them apart may be missing. Identical values can stand only once.

Assays:
Test in all cases: Caliper, Mobility shift assay off-chip
ABL2 (human) = ABL2 (human) (UniProt P42684)
CDK7 (human) = CDK7 (human) (UniProt P50613)
CDK9 (human) = CDK9 (human) (UniProt P50750)
CSF1R (human) = CSF1R (human) (UniProt P07333)
CSK (human) = CSK (human) (UniProt P41240)
CSNK2A1 (human) = CSNK2A1 (human) (UniProt P68400)
EPHA4 (human) = EPHA4 (human) (UniProt P54764)
FYN (human) = FYN (human) (UniProt P06241)
IKBKE (human) = IKBKE (human) (UniProt Q14164)
INSRR (human) = INSRR (human) (UniProt P14616)
IRAK1 (human) = IRAK1 (human) (UniProt P51617)
KIT (human) = KIT (human) (UniProt P10721)
LYN (human) = LYN (human) (UniProt P07948)
MAP4K2 (human) = MAP4K2 (human) (UniProt Q12851)
MAPKAPK2 (human) = MAPKAPK2 (human) (UniProt P49137)
NIM1 (human) = NIM1 (human) (UniProt Q8IY84)
PAK1 (human) = PAK1 (human) (UniProt Q13153)
PAK2 (human) = PAK2 (human) (UniProt Q13177)
PAK4 (human) = PAK4 (human) (UniProt O96013)
PBK (human) = PBK (human) (UniProt Q96KB5)
PDGFRA (human) = PDGFRA (human) (UniProt P16234)
PDGFRB (human) = PDGFRB (human) (UniProt P09619)
PLK1 (human) = PLK1 (human) (UniProt P53350)
PRKAA1 (human) = PRKAA1 (human) (UniProt Q13131)
SIK2 (human) = SIK2 (human) (UniProt Q9H0K1)
TAOK2 (human) = TAOK2 (human) (UniProt Q9UL54)
TNIK (human) = TNIK (human) (UniProt Q9UKE5)
TNK1 (human) = TNK1 (human) (UniProt Q13470)
TNK2 (human) = TNK2 (human) (UniProt Q07912)
TSSK2 (human) = TSSK2 (human) (UniProt Q96PF2)
CLK1 (human) = CLK1 (human) (UniProt P49759)
PIK3CA PIK3R1 (human) = PIK3CA PIK3R1 (human) (UniProt P27986+P42336)
RPS6KA2 KD1 KD2 (human) = RPS6KA2 KD1 KD2 (human) (UniProt Q15349)

Chain of IKBKE (human) (Q14164 whole entry, looked up): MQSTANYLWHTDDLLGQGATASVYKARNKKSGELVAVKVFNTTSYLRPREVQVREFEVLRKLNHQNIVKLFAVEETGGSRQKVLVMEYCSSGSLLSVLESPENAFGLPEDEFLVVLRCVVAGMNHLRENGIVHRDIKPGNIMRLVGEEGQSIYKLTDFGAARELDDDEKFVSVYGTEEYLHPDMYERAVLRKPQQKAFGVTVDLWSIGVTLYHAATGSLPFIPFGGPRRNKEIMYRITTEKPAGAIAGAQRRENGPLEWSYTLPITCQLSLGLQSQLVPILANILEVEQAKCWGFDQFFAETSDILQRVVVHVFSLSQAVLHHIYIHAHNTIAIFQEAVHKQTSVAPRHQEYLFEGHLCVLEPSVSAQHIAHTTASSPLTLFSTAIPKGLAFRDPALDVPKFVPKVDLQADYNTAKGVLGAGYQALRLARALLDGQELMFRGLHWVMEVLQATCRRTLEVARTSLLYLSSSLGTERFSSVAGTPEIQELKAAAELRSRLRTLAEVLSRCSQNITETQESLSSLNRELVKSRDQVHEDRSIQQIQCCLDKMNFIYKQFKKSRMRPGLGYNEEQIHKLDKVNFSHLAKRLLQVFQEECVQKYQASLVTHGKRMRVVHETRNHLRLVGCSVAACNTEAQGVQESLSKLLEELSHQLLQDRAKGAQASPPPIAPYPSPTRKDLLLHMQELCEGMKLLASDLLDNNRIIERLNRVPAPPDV
Chain of TNK2 (human) (Q07912 whole entry, looked up): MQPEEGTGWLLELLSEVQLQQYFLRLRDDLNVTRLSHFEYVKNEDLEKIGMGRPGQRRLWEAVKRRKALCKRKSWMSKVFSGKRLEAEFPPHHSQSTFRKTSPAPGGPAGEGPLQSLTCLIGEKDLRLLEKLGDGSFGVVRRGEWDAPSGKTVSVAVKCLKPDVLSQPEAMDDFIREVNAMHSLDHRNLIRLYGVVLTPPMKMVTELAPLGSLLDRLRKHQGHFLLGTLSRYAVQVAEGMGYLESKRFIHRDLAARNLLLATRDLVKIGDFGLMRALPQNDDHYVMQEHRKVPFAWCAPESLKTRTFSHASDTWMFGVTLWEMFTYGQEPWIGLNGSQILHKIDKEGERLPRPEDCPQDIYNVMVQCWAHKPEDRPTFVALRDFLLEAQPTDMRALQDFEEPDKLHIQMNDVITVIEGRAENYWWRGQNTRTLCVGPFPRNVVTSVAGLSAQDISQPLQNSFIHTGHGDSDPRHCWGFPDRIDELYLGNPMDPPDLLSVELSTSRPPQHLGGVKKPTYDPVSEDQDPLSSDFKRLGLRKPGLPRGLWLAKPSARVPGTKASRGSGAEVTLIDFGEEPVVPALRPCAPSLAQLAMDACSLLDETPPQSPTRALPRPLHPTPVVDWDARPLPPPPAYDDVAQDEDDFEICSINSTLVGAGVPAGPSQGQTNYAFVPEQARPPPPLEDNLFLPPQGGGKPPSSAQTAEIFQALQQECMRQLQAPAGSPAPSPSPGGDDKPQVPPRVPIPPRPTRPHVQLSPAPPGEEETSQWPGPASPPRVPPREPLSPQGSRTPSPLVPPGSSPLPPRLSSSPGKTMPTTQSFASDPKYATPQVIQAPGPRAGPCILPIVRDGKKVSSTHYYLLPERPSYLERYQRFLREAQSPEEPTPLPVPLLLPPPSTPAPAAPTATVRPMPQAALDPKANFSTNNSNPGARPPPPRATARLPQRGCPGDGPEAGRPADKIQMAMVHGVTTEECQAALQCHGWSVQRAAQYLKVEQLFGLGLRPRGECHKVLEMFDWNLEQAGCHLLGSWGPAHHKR
Chain of MAP4K2 (human) (Q12851 whole entry, looked up): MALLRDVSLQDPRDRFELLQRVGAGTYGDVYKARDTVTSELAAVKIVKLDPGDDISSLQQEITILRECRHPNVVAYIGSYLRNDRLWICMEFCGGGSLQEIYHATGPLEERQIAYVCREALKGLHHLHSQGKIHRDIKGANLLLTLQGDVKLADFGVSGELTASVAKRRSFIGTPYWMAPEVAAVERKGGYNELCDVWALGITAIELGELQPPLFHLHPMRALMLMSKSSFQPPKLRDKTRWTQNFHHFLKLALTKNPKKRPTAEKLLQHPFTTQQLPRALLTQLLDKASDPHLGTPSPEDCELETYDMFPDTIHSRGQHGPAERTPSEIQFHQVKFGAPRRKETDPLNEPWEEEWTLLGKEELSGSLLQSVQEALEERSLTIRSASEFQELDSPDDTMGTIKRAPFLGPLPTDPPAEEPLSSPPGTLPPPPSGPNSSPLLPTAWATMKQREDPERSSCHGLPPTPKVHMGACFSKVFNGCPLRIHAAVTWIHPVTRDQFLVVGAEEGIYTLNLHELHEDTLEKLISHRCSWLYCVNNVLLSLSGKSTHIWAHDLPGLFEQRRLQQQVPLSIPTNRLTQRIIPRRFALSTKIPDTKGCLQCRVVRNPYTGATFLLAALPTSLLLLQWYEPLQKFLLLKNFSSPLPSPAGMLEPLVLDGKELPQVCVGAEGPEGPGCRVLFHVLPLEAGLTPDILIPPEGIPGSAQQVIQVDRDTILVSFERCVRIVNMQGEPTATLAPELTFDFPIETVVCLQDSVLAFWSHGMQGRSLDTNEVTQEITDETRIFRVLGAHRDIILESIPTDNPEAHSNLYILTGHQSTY
Chain of PBK (human) (Q96KB5 whole entry, looked up): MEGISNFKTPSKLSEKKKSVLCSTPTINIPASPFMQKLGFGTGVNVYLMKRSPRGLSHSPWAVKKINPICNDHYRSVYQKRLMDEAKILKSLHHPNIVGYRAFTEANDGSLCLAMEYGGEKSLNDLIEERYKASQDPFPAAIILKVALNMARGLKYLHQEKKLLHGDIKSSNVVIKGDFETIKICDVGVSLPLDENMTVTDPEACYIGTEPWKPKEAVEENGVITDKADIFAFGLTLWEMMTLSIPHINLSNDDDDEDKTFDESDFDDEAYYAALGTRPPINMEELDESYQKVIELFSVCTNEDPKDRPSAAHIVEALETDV
Chain of TAOK2 (human) (Q9UL54 whole entry, looked up): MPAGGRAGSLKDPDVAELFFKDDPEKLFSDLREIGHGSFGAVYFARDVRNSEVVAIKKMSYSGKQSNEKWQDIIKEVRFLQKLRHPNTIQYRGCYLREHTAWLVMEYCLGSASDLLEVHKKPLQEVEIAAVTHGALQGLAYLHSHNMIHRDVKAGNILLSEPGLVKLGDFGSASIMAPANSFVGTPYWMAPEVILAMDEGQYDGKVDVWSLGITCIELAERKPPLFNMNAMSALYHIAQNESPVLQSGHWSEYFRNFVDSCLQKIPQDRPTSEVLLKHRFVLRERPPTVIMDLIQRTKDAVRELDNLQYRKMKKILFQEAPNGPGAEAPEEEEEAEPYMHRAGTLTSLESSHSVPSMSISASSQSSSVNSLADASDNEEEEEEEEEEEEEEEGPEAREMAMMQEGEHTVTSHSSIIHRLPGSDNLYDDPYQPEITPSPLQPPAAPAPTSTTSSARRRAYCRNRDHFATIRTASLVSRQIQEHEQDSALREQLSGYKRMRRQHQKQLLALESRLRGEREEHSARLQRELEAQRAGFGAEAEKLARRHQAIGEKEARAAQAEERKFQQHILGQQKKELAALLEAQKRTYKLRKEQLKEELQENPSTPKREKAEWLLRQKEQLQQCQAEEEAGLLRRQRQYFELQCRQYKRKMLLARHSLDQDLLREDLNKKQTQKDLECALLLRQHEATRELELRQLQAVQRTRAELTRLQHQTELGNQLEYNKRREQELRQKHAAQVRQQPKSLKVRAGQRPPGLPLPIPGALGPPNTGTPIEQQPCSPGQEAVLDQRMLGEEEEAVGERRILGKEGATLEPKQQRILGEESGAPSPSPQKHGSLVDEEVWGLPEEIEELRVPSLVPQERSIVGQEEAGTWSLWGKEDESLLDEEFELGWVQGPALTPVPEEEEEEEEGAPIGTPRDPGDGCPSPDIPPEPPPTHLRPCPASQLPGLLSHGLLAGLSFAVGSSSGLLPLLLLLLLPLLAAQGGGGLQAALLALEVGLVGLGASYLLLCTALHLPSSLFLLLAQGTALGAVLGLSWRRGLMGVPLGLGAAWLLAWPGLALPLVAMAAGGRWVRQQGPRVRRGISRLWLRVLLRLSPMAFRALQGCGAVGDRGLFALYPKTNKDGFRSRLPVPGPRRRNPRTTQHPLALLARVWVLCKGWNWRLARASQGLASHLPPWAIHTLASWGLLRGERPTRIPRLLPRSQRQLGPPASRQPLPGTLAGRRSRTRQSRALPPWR
Chain of CDK7 (human) (P50613 whole entry, looked up): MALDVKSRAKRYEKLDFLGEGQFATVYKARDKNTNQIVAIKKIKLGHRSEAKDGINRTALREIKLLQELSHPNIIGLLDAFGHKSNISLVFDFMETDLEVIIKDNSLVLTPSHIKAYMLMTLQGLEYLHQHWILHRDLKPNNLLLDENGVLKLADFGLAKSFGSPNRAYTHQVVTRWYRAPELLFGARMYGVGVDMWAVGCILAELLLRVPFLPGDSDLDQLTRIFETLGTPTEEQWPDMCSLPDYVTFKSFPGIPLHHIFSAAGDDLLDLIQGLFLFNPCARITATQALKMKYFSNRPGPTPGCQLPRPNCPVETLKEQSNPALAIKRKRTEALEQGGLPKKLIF
Chain of TSSK2 (human) (Q96PF2 whole entry, looked up): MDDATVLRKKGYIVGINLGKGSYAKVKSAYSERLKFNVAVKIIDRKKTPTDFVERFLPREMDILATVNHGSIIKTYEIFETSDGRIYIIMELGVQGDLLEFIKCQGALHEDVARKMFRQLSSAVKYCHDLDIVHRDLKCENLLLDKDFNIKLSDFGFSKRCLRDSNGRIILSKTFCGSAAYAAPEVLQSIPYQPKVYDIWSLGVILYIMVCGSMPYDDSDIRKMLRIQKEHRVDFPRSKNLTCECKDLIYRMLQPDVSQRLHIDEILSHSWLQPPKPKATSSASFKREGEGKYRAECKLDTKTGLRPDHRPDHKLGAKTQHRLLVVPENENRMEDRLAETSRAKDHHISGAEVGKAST

For `CCN(CC)CCNC(=O)c1c(C)[nH]c(/C=C2\C(=O)Nc3ccc(F)cc32)c1C`, the inhibition (ABL2 (human); compound 0.2 µM) was 13.7%, the inhibition (ABL2 (human); compound 4.0 µM) was 66.6% and the inhibition (CDK7 (human); compound 0.2 µM) was 87.6%. It also gave an inhibition (CDK7 (human); compound 4.0 µM) of 98.8%, an inhibition (CDK9 (human); compound 0.2 µM) of -0.1% and an inhibition (CDK9 (human); compound 4.0 µM) of 47.5%. The inhibition (CSF1R (human); compound 0.2 µM) was 67.9%, the inhibition (CSF1R (human); compound 4.0 µM) was 98.9% and the inhibition (CSK (human); compound 0.2 µM) was 1.2%. It also gave an inhibition (CSK (human); compound 4.0 µM) of 17.6%, an inhibition (CSNK2A1 (human); compound 0.2 µM) of -0.4% and an inhibition (CSNK2A1 (human); compound 4.0 µM) of 19.9%. For the same compound, the inhibition (EPHA4 (human); compound 0.2 µM) was 2.1%, the inhibition (EPHA4 (human); compound 4.0 µM) was 40.8% and the inhibition (FYN (human); compound 0.2 µM) was 45.3%. The inhibition (FYN (human); compound 4.0 µM) was 93.3%, the inhibition (IKBKE (human); compound 0.2 µM) was 11.9% and the inhibition (IKBKE (human); compound 4.0 µM) was 71.8%. For the same compound, the inhibition (INSRR (human); compound 0.2 µM) was 75.7%, the inhibition (INSRR (human); compound 4.0 µM) was 101% and the inhibition (IRAK1 (human); compound 0.2 µM) was 68.5%. It also gave an inhibition (IRAK1 (human); compound 4.0 µM) of 84%, an inhibition (KIT (human); compound 0.2 µM) of 76.7% and an inhibition (KIT (human); compound 4.0 µM) of 100%. For the same compound, the inhibition (LYN (human); compound 0.2 µM) was 67.3% and 70.3%, the inhibition (LYN (human); compound 4.0 µM) was 98.3% and 99.7% and the inhibition (MAP4K2 (human); compound 0.2 µM) was 69.5%. The inhibition (MAPKAPK2 (human); compound 0.2 µM) was 4%, the inhibition (MAPKAPK2 (human); compound 4.0 µM) was 5.5% and the inhibition (NIM1 (human); compound 0.2 µM) was 17.9%. The inhibition (NIM1 (human); compound 4.0 µM) was 67.1%, the inhibition (PAK1 (human); compound 0.2 µM) was -2.8% and the inhibition (PAK1 (human); compound 4.0 µM) was 1.8%. For the same compound, the inhibition (PAK2 (human); compound 0.2 µM) was 1.8%, the inhibition (PAK2 (human); compound 4.0 µM) was 7.7% and the inhibition (PAK4 (human); compound 0.2 µM) was 16.2%. The inhibition (PAK4 (human); compound 4.0 µM) was 62.8%, the inhibition (PBK (human); compound 0.2 µM) was -6.1% and the inhibition (PBK (human); compound 4.0 µM) was -7.6%. It also gave an inhibition (PDGFRA (human); compound 0.2 µM) of 100%, an inhibition (PDGFRB (human); compound 0.2 µM) of 98.9% and an inhibition (PDGFRB (human); compound 4.0 µM) of 102%. The inhibition (PLK1 (human); compound 0.2 µM) was -3.4%, the inhibition (PLK1 (human); compound 4.0 µM) was 5.8% and the inhibition (PRKAA1 (human); compound 0.2 µM) was 62.6%. The inhibition (PRKAA1 (human); compound 4.0 µM) was 98.7%, the inhibition (SIK2 (human); compound 0.2 µM) was 46.8% and the inhibition (SIK2 (human); compound 4.0 µM) was 94.5%. The inhibition (TAOK2 (human); compound 0.2 µM) was 3.8%, the inhibition (TAOK2 (human); compound 4.0 µM) was 18.6% and the inhibition (TNIK (human); compound 0.2 µM) was 87.5%. It also gave an inhibition (TNIK (human); compound 4.0 µM) of 98.1%, an inhibition (TNK1 (human); compound 0.2 µM) of 32.1% and an inhibition (TNK1 (human); compound 4.0 µM) of 88.4%. It also gave an inhibition (TNK2 (human); compound 0.2 µM) of 13.6%, an inhibition (TNK2 (human); compound 4.0 µM) of 76.8% and an inhibition (TSSK2 (human); compound 0.2 µM) of -0.6%. For the same compound, the inhibition (TSSK2 (human); compound 4.0 µM) was 35.3%.
`CNC(=O)c1ccccc1Sc1ccc2c(/C=C/c3ccccn3)n[nH]c2c1` showed an inhibition (ABL2 (human); compound 0.001 µM) of 5.8%, an inhibition (ABL2 (human); compound 0.02 µM) of 58.4% and an inhibition (CDK7 (human); compound 0.001 µM) of -7.5%. The inhibition (CDK7 (human); compound 0.02 µM) was -3.4%, the inhibition (CDK9 (human); compound 0.001 µM) was -4.7% and the inhibition (CDK9 (human); compound 0.02 µM) was -6.4%. It also gave an inhibition (CLK1 (human); compound 0.001 µM) of 6.6%, an inhibition (CLK1 (human); compound 0.02 µM) of -7.5% and an inhibition (CSF1R (human); compound 0.001 µM) of 13.2%. The inhibition (CSF1R (human); compound 0.02 µM) was 22.8%, the inhibition (CSK (human); compound 0.001 µM) was -4.6% and the inhibition (CSK (human); compound 0.02 µM) was -6.7%. It also gave an inhibition (CSNK2A1 (human); compound 0.001 µM) of -3.2%, an inhibition (CSNK2A1 (human); compound 0.02 µM) of -4.4% and an inhibition (EPHA4 (human); compound 0.001 µM) of -6.8%. The inhibition (EPHA4 (human); compound 0.02 µM) was -4.3%, the inhibition (FYN (human); compound 0.001 µM) was 7.3% and the inhibition (FYN (human); compound 0.02 µM) was 6.1%. For the same compound, the inhibition (IKBKE (human); compound 0.001 µM) was -6.5%, the inhibition (IKBKE (human); compound 0.02 µM) was -5.1% and the inhibition (INSRR (human); compound 0.001 µM) was -5.2%. The inhibition (INSRR (human); compound 0.02 µM) was -8.3%, the inhibition (IRAK1 (human); compound 0.001 µM) was -12.5% and the inhibition (IRAK1 (human); compound 0.02 µM) was 4.3%. The inhibition (KIT (human); compound 0.001 µM) was 37.8%, the inhibition (KIT (human); compound 0.02 µM) was 70.5% and the inhibition (LYN (human); compound 0.001 µM) was -2.2% and 4.1%. The inhibition (LYN (human); compound 0.02 µM) was 16% and 9.7%, the inhibition (MAP4K2 (human); compound 0.001 µM) was -2.6% and the inhibition (MAP4K2 (human); compound 0.02 µM) was 4.8%. It also gave an inhibition (MAPKAPK2 (human); compound 0.001 µM) of 2.3%, an inhibition (MAPKAPK2 (human); compound 0.02 µM) of -0.8% and an inhibition (NIM1 (human); compound 0.001 µM) of 13.8%. It also gave an inhibition (NIM1 (human); compound 0.02 µM) of -10.4%, an inhibition (PAK1 (human); compound 0.001 µM) of -1.5% and an inhibition (PAK1 (human); compound 0.02 µM) of -1.5%. For the same compound, the inhibition (PAK2 (human); compound 0.001 µM) was -3.6%, the inhibition (PAK2 (human); compound 0.02 µM) was 4.1% and the inhibition (PAK4 (human); compound 0.001 µM) was 3.3%. For the same compound, the inhibition (PAK4 (human); compound 0.02 µM) was 0.8%, the inhibition (PBK (human); compound 0.001 µM) was -7.6% and the inhibition (PBK (human); compound 0.02 µM) was -7.4%. For the same compound, the inhibition (PDGFRA (human); compound 0.001 µM) was 33.1%, the inhibition (PIK3CA PIK3R1 (human); compound 0.001 µM) was 40.8% and the inhibition (PIK3CA PIK3R1 (human); compound 0.02 µM) was 40.7%. The inhibition (PLK1 (human); compound 0.001 µM) was -5%, the inhibition (PLK1 (human); compound 0.02 µM) was -2.2% and the inhibition (PRKAA1 (human); compound 0.001 µM) was 7.1%. The inhibition (PRKAA1 (human); compound 0.02 µM) was 10.1%, the inhibition (RPS6KA2 KD1 KD2 (human); compound 0.001 µM) was -0.7% and the inhibition (RPS6KA2 KD1 KD2 (human); compound 0.02 µM) was 6%. For the same compound, the inhibition (SIK2 (human); compound 0.001 µM) was 0.7%, the inhibition (SIK2 (human); compound 0.02 µM) was -1.6% and the inhibition (TAOK2 (human); compound 0.001 µM) was -4.1%. It also gave an inhibition (TAOK2 (human); compound 0.02 µM) of -6.1%, an inhibition (TNIK (human); compound 0.001 µM) of -6% and an inhibition (TNIK (human); compound 0.02 µM) of 1.4%. The inhibition (TNK1 (human); compound 0.001 µM) was 26.9%, the inhibition (TNK1 (human); compound 0.02 µM) was 24.8% and the inhibition (TNK2 (human); compound 0.001 µM) was -7.8%. It also gave an inhibition (TNK2 (human); compound 0.02 µM) of -8.8%, an inhibition (TSSK2 (human); compound 0.001 µM) of -5.1% and an inhibition (TSSK2 (human); compound 0.02 µM) of -5.4%.
